Series [1] has as its system UMNs of hSOD1^G93A-UeGFP mice. The series is described as follows: Axon outgrowth of UMNs diseased by mSOD1 toxicity in dissociated motor cortex culture. It is filed as cell-based, mouse. The note with it: 3 days in vitro; for average length of UMN axons: SFM control 227.62±19.63 μm, WT 321.41±17.54 μm. An excerpt: (§1) Mice. All animal procedures were approved by the Northwestern University Animal Care and Use committee and comply with the standards of the National Institutes of Health. All mice were on C57BL/6 background. Transgenic hemizygous males expressing a high copy number of the human SOD1 gene with a G93A mutation (B6SJL-Tg (SOD1*G93A)1Gur/J; The Jackson Laboratory) were bred to hemizygous UCHL1-eGFP females to generate hSOD1^G93A-UeGFP and WT-UeGFP (control) mice. UCHL1-eGFP mice were generated in the Ozdinler Lab; they are reporter lines for UMNs (Yasvoina, Genc et al. 2013), and are now available at Jackson Laboratory (stock no. 022476). Hemizygous UCHL1-eGFP females were bred to hemizygous prpTDP-43^A315T mice (procured from Jackson Laboratory, stock no. 010700) to generate prpTDP-43^A315T-UeGFP mice. prpTDP-43^A315T mice were supplied with gel diet (DietGel 76A, ClearH2O, ME, USA) to eliminate gastrointestinal (GI) complications. Transgenic mice were identified by PCR amplification of DNA extracted from their tail, as previously described (Gurney, Pu et al. 1994, Wegorzewska, Bell et al. 2009, Yasvoina, Genc et al. 2013, Gautam, Jara et al. 2019). Mice with different genotypes are abbreviated in the figures as follows: WT-UeGFP (control) mice=G mice; hSOD1^G93A-UeGFP mice=GS mice; prpTDP-43^A315T-UeGFP mice=GTDP mice.
(§2) Compound preparation and delivery. NU-9 was prepared as 100 μM stock in dimethylsulfoxide (DMSO) and added to serum free medium (SFM) at a final concentration of 400 nM (4 μl per 1 ml SFM). […] Edaravone (Sigma-Aldrich) was prepared as 1 mM stock in DMSO and added at a final concentration of 1 μM in SFM (1 μl per 1 ml SFM). Amylyx AMX-0035 compound was a combination of 1 mM of 4-Phenylbutyric acid (4-PBA, Sigma Aldrich)+100 μM Tauroursodeoxycholic Acid, Sodium Salt (TUDCA, Millipore Sigma) added into SFM (4-PBA was prepared as a 21.5 mM stock in water and added at 46.5 μl per 1 ml SFM, TUDCA was prepared as 20 mM stock in water, and added at 5 μl per 1 ml SFM).
(§3) UMN Cultures. P3 motor cortices isolated from WT-UeGFP, hSOD1^G93A-UeGFP, and prpTDP-43^A315T-UeGFP mice were dissected, dissociated, and cultured on glass coverslips (4×10^4 cells per 18 mm diameter coverslip, Fisherbrand) coated with poly-L-lysine (10 mg/mL, Sigma) as previously described (Ozdinler and Macklis 2006). […]
(§4) UMNs were quantitatively analyzed for differences in neurite length and arborization complexity. Images taken with a 20× objective on the epifluorescent microscope (Nikon) were analyzed using the Neurite Tracer plugin from FIJI (NIH), which enables semi-autonomous tracing to measure the length of the axon. […]

Series [2] deals with UMNs from prpTDP-43^A315T-UeGFP mice. The class given is cell-based. The note with it: prpTDP-43^A315T-UeGFP UMNs, 3 days in vitro; for average length of the axons of UMNs: SFM control 199.52±21.15 μm, WT 321.41±17.54 μm.
Text: as §1, §2, §3, §4

Series [3] deals with UMNs of hSOD1^G93A-UeGFP mice. The series is described as follows: Sholl analysis of arborization and branching, UMNs diseased by mSOD1 toxicity. It is filed as cell-based, mouse. The note with it: 3 days in culture, data not shown. Here is the method: (§5) UMN Cultures. P3 motor cortices isolated from WT-UeGFP, hSOD1^G93A-UeGFP, and prpTDP-43^A315T-UeGFP mice were dissected, dissociated, and cultured on glass coverslips (4×10^4 cells per 18 mm diameter coverslip, Fisherbrand) coated with poly-L-lysine (10 mg/mL, Sigma) as previously described (Ozdinler and Macklis 2006). Neurons were cultured in SFM [0.034 mg/L BSA, 1 mM L-glutamine, 25 U/mL penicillin, 0.025 mg/mL streptomycin, 35 mM glucose, and 0.5% B27 in Neurobasal-A medium (Life Technologies)] in a humidified tissue culture incubator in the presence of 5% CO2 at 37° C. […] Cultures were fixed after 3 days in vitro (DIV).
(§6) UMNs were quantitatively analyzed for differences in neurite length and arborization complexity. Images taken with a 20× objective on the epifluorescent microscope (Nikon) were analyzed using the Neurite Tracer plugin from FIJI (NIH), which enables semi-autonomous tracing to measure the length of the axon. The aggregation of the neurite tracings centered at the soma generates a profile available for Sholl analysis.

The conditions of series [4]: literature value; cited from earlier work.
Series [5] deals with UMNs from prpTDP-43^A315T-UeGFP mice. The series is described as follows: Sholl analysis of arborization and branching, UMNs with TDP-43 pathology. The class given is cell-based, mouse. The conditions noted are these: prpTDP-43^A315T-UeGFP UMNs; data not shown. Here is the method: as §5, §6
Statistical analysis. All analyses were performed using Prism software (GraphPad Software). The D'Agostino and Pearson normality test was performed on all datasets. Statistical differences between more than two groups were determined by one-way ANOVA followed by the Tukey's post-hoc multiple-comparison test. […]

Another series has as its system male BALB/c mice. The conditions noted are these: mouse, in vivo, po, 100 mg/kg/day.
The conditions of series [6]: male, BALB/c, mouse, in vivo, po.
Another series in a line: in vivo. The note with it: BALB/c, mouse, 100 mg/kg/day.
A short description of series [7]: Plasma, brain and CNS concentrations after repeated oral dosing. The note with it: mice, 100 mg/kg/day via daily gavage.
In series [8] the test system is misfolded SOD1 (mSOD1) mouse model. The conditions noted are these: literature (Snow 2003, Scott 2008); cited from earlier work.
Setting [9] is: NU-9 400 nM, riluzole 500 nM, edaravone 1 μM.
[10] abbreviates: riluzole 500 nM, edaravone 1 μM.

Protocol for male BALB/c mice: Repeated dose toxicity study was performed at Laboratory Animal House (LAH), Toxicology, Sai Life Science Ltd., Chrysalis Enclave, Phase II, Hinjewadi, Pune-411 057, Maharashtra, India.

Turning to `CC1=NN(c2ccccc2)C(=O)C1` [edaravone, 2,4-Dihydro-5-methyl-2-phenyl-3H-pyrazol-3-one, reference compound], in series [1] (setting [9]), the “average length of UMN axons” value turned out to be 289.58±22.71 μm. Moreover, in series [1] (setting [10]), the “overall axon outgrowth (distribution of longest axons)” value is recorded as “improved overall axon outgrowth”. For the same compound, the “average length of the axons of UMNs” value in series [2] (setting [9]) came out at 282.57±32.39 μm. Besides, the “percentage of UMNs with axons in the range of 200-399 μm” value in [2] (setting [10]) was 62%. Moreover, the “UMN arborization (Sholl measurements)” value in series [3] is listed as “improved UMN arborization, but to a lesser extent”. For the same compound, in series [4], the “concentration reported to be present in the CNS after the optimum dose used in clinical trials” value is 1000 nM.

In general, Tmax refers to the time from dosing to the highest level. `C[C@H](Oc1cc(C(F)(F)F)cc(C(F)(F)F)c1)C1CC(=O)CC(=O)C1` [NU-9, (S)-5-(1-(3,5-bis(trifluoromethyl)phenoxy)ethyl)cyclohexane-1,3-dione]: the “percent of UMNs with an axon within the range of 300-399 μm” value in [1] (NU-9 400 nM) is “about 44.4%”. The “average length of UMN axons” value in [1] (setting [9]) was 346.76±12.32 μm. The “percentage of UMNs with axons longer than 300 μm” value in series [2] (NU-9 400 nM, vehicle 26%) came to 88%. In addition, the “average length of the axons of UMNs” value in series [2] (setting [9]) is given as 397.73±14.09 μm. Besides, the “UMN arborization (Sholl measurements)” value in series [3] is “more complex and arborized UMNs”. Also, the “neuronal arborization and branching (Sholl analyses)” value in [5] is “enhanced neuronal arborization and branching”. Besides, the mortality entry in the series on male BALB/c mice is recorded as “did not result in mortality”. Further, in series [6], the “time till which plasma concentrations were quantifiable” value is given as “up to 24 h” and the “time up to which brain concentrations were quantifiable” value is “up to 24 h”. This compound had a concentration at 7 day in “in vivo” (CNS, oral) of 400 nM. Further, the time of peak concentration (Tmax) in the series “in vivo” (male, plasma, po) came to 30 min. Besides, the “dose (concentration) detected in CNS” value in [7] was determined as 400 nM.

`Nc1nc2ccc(OC(F)(F)F)cc2s1` [riluzole, 2-Amino-6-(trifluoromethoxy)benzothiazole]: the “longevity of the mSOD1 mouse model” value in series [8] is on record as “failed to improve the longevity”.

Source of the values: patent US20240398727A1, “(S)-5-(1-(3,5-BIS(TRIFLUOROMETHYL)PHENOXY)ETHYL)CYCLOHEXANE-1,3-DIONE (NU-9) IMPROVES THE HEALTH OF DISEASED UPPER MOTOR NEURONS” (Northwestern University, priority 2021, published 2024).
